Test results as given in patent US12465594B2 (Brown University, priority 2018, dated 2025).

Key:
[1] = system: NMDAR EPSCs in VTA dopamine neurons; assay: Electrophysiology: CRF potentiation of NMDAR EPSCs in VTA slices; format: cell-based, mouse; settings: 30 μM compound, CRF 1 μM, VTA-DA neurons, acute brain slices
Description: Male and female mice (n=44; 6-10 weeks) were anesthetized with Euthasol (Butler-Schein). Brains were rapidly removed and placed in ice-cold NMDG-based artificial Cerebrospinal Fluid (aCSF) cutting solution containing (in mM): 92 NMDG, 20 HEPES, 25 glucose, 30 NaHCO3, 2.5 KCl, 1.2 NaPO4 saturated with 95% O2/5% CO2 with an osmolarity of 305-308 mOsm (Advanced Cell Diagnostics). The brain was cut in ice-cold NMDG solution to obtain horizontal VTA slices, 230 μm thick, using a Leica vibratome (Leica VT1200) and slices were incubated in warm NMDG solution (34° C.) for <5 minutes before being placed in a modified aCSF holding solution (in mM): 92 NaCl, 20 HEPES, 25 glucose, 30 NaHCO3, 2.5 KCl, 1.2 NaPO4 (305-308 mOsm). Slices were incubated at room temperature for at least 1 hour before recording.
Whole-cell patch clamp of the lateral VTA was performed under the guidance of IR-DIC optics on an Olympus BX5iWI microscope. Cells were patched with 1.8-3 MO resistance glass microelectrodes containing the following internal solution (in mM): 117 cesium methanesulfonate, 20 HEPES, 0.4 EGTA, 2.8 NaCl, 5 TEA-CI, 4 Mg-ATP, 0.4 Na-GTP, and 5 QX-314 (280-285 mOsm). Dopamine cells were identified by the following criteria: 1) large multipolar soma, 30-40 μm in diameter, 2) tonic firing of <4 Hz when cell attached, 3) large […] with negative voltage step (identified immediately following break in). […] Series resistance was monitored online. […]
For electrophysiology measures, excitatory post-synaptic currents (EPSCs) were normalized to 7 minute of averaged baseline responses, prior to drug application. […] Results are reported as M±SEM a in bar graphs comparing drug to vehicle and analyzed by a one-way ANOVA and post-hoc comparisons to vehicle were performed using a Bonferroni multiple comparisons correction measures (**p<0.01). […]
NMDAR excitatory postsynaptic currents (EPSCs) were recorded from VTA dopamine (DA) neurons in acute brain slices from male and female mice. […]

5-HT1A = target: T1, 5-HT1A (Homo sapiens, UniProt P08908); assay: PDSP binding assay; settings: 10 μM, quadruplicate, cloned target
T1 construct: NIMH Psychoactive Drug Screening Program (PDSP)

5-HT1B = target: T2, 5-HT1B (Homo sapiens, UniProt P28222); assay: PDSP binding assay; settings: 10 μM, quadruplicate, cloned target
T2 construct: NIMH Psychoactive Drug Screening Program (PDSP)

5-HT2A = target: T3, 5-HT2A (Homo sapiens, UniProt P28223); assay: PDSP binding assay; settings: 10 μM, quadruplicate, cloned target
T3 construct: NIMH Psychoactive Drug Screening Program (PDSP)

5-HT2B = target: T4, 5-HT2B (Homo sapiens, UniProt P41595); assay: PDSP binding assay; settings: 10 μM, quadruplicate, cloned target
T4 construct: NIMH Psychoactive Drug Screening Program (PDSP)

5-HT3 = target: T5, 5-HT3 (Homo sapiens, UniProt P46098); assay: PDSP binding assay; settings: 10 μM, quadruplicate, cloned target
T5 construct: NIMH Psychoactive Drug Screening Program (PDSP)

5-HT7 = target: T6, 5-HT7 (Homo sapiens, UniProt P34969); assay: PDSP binding assay; settings: 10 μM, quadruplicate, cloned target
T6 construct: NIMH Psychoactive Drug Screening Program (PDSP)

D4 = D4 (Homo sapiens, UniProt P21917); assay: PDSP binding assay; settings: 10 μM, quadruplicate, cloned target
NET = NET (Homo sapiens, UniProt P23975); assay: PDSP binding assay; settings: 10 μM, quadruplicate, cloned target
KOR = KOR (Homo sapiens, UniProt P41145); assay: PDSP binding assay; settings: 10 μM, quadruplicate, cloned target
GABAA = assay: PDSP binding assay; settings: 10 μM, quadruplicate, cloned target
H4 = H4 (Homo sapiens, UniProt Q9H3N8); assay: PDSP binding assay; settings: 10 μM, quadruplicate, cloned target
Alpha1A = Alpha1A (Homo sapiens, UniProt P35348); assay: PDSP binding assay; settings: 10 μM, quadruplicate, cloned target
Alpha1B = Alpha1B (Homo sapiens, UniProt P35368); assay: PDSP binding assay; settings: 10 μM, quadruplicate, cloned target
Alpha2A = Alpha2A (Homo sapiens, UniProt P08913); assay: PDSP binding assay; settings: 10 μM, quadruplicate, cloned target
Alpha2B = Alpha2B (Homo sapiens, UniProt P18089); assay: PDSP binding assay; settings: 10 μM, quadruplicate, cloned target
Beta1 = Beta1 (Homo sapiens, UniProt P08588); assay: PDSP binding assay; settings: 10 μM, quadruplicate, cloned target
M3 = M3 (Homo sapiens, UniProt P20309); assay: PDSP binding assay; settings: 10 μM, quadruplicate, cloned target
M5 = M5 (Homo sapiens, UniProt P08912); assay: PDSP binding assay; settings: 10 μM, quadruplicate, cloned target
Beta3 = Beta3 (Homo sapiens, UniProt P13945); assay: PDSP binding assay; settings: 10 μM, quadruplicate, cloned target
BZP Rat Brain Site = assay: PDSP binding assay; settings: 10 μM, quadruplicate
Alpha1D = Alpha1D (Homo sapiens, UniProt P25100); assay: PDSP binding assay; settings: 10 μM, quadruplicate, cloned target
Sigma 2 = assay: PDSP binding assay; settings: 10 μM, quadruplicate, cloned target
Sigma 1 = assay: PDSP binding assay; settings: 10 μM, quadruplicate, cloned target
M1 = M1 (Homo sapiens, UniProt P11229); assay: PDSP binding assay; settings: 10 μM, quadruplicate, cloned target
M1, sequence (P11229 whole entry): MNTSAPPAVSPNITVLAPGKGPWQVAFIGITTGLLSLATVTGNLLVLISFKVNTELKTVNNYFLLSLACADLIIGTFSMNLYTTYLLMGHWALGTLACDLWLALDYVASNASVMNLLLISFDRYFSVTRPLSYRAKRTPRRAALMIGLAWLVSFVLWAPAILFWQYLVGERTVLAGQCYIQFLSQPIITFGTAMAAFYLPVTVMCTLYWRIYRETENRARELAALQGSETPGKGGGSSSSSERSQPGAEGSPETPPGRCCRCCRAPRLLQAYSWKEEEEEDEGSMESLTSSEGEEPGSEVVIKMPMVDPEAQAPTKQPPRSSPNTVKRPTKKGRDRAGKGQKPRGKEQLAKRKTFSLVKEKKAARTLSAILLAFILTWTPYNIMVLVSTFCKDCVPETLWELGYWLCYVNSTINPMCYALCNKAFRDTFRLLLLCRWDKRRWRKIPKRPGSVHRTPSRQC

Alpha1D, sequence (P25100 whole entry): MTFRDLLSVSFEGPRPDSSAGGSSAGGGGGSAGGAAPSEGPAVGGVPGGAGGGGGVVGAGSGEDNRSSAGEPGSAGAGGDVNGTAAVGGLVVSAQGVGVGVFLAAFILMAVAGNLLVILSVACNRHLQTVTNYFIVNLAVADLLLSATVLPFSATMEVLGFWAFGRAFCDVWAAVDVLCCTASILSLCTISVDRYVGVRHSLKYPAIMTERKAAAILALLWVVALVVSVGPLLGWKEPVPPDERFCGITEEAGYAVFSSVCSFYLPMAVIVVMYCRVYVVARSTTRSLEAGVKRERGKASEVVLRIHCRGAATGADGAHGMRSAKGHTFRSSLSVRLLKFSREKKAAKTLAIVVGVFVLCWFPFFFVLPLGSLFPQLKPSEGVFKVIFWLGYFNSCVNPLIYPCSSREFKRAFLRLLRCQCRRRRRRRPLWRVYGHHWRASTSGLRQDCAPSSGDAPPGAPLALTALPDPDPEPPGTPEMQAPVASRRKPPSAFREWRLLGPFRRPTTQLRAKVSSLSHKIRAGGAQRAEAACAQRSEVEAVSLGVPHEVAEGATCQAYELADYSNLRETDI
T3 sequence (P28223 whole entry, species assumed): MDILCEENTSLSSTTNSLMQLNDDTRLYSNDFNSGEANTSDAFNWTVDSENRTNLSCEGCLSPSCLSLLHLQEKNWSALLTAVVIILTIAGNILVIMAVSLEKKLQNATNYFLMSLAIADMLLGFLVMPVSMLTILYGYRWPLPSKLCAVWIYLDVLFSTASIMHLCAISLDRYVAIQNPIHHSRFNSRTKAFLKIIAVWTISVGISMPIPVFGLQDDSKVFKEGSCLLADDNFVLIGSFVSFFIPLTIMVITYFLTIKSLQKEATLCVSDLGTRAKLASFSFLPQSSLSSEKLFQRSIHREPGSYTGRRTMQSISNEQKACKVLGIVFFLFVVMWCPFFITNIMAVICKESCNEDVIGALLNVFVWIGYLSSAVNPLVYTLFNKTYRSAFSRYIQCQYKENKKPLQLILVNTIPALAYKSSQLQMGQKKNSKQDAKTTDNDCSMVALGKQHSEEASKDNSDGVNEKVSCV
Alpha2B, sequence (P18089 whole entry): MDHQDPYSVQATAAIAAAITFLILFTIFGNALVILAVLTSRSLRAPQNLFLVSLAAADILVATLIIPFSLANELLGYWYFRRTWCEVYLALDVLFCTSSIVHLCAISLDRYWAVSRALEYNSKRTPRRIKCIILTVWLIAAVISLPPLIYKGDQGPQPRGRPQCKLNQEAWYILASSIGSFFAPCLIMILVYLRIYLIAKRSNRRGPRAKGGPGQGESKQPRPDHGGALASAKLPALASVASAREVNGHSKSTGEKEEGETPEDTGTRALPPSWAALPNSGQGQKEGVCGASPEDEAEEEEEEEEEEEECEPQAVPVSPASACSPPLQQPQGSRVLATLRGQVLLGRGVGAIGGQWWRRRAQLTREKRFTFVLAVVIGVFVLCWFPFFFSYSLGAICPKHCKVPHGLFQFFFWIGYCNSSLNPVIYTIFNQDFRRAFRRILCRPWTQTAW
M5, sequence (P08912 whole entry): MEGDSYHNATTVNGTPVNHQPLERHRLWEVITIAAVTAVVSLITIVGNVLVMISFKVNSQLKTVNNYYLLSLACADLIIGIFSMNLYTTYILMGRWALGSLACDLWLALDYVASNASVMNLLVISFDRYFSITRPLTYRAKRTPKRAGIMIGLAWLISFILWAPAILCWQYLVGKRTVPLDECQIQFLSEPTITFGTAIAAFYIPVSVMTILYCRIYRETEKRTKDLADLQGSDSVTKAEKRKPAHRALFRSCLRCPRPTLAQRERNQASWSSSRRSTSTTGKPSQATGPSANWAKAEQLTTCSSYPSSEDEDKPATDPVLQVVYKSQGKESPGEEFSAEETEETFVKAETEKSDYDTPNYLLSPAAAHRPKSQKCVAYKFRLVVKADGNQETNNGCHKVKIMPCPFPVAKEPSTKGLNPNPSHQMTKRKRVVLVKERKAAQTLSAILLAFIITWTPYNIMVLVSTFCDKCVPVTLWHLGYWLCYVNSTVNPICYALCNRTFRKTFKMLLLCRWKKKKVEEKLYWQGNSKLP
M3, sequence (P20309 whole entry): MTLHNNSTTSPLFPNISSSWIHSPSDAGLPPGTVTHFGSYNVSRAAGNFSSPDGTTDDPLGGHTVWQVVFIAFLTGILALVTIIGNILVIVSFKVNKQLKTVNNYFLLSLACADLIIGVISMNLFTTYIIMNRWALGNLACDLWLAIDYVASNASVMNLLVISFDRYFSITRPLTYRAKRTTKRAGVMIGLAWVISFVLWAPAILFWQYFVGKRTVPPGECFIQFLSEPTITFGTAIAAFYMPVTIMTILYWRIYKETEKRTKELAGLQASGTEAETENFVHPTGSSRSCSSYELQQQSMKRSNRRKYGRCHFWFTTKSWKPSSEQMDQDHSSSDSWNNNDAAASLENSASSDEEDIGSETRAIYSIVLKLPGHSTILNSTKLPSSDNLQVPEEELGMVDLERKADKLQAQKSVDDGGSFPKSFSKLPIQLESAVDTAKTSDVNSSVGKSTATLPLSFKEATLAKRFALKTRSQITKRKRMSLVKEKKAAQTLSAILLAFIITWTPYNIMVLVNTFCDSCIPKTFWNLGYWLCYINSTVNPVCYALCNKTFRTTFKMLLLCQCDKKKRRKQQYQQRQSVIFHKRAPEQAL
T2 sequence (P28222 whole entry, species assumed): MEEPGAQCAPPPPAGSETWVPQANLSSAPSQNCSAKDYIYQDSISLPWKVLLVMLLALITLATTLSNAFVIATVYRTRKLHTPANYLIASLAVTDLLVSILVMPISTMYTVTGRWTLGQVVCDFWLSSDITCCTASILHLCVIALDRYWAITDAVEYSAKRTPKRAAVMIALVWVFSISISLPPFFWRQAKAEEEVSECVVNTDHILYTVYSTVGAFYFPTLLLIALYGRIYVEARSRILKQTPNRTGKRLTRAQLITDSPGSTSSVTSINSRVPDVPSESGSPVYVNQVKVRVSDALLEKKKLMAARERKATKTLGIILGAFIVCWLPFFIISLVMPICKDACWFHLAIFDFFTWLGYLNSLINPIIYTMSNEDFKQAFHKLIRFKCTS
Alpha1B, sequence (P35368 whole entry): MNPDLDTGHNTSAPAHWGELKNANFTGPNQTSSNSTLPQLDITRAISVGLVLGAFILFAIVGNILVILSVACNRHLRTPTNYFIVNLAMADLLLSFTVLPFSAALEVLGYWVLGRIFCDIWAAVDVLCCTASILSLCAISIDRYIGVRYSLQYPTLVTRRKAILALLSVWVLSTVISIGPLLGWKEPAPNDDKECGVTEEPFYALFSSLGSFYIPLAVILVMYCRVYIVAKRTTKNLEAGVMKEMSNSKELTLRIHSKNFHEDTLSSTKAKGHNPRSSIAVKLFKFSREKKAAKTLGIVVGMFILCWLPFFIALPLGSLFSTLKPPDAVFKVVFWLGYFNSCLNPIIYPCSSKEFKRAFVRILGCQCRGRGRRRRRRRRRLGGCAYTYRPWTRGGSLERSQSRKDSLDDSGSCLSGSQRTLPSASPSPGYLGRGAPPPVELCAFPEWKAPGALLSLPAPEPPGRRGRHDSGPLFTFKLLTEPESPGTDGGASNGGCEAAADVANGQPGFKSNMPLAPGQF
H4, sequence (Q9H3N8 whole entry): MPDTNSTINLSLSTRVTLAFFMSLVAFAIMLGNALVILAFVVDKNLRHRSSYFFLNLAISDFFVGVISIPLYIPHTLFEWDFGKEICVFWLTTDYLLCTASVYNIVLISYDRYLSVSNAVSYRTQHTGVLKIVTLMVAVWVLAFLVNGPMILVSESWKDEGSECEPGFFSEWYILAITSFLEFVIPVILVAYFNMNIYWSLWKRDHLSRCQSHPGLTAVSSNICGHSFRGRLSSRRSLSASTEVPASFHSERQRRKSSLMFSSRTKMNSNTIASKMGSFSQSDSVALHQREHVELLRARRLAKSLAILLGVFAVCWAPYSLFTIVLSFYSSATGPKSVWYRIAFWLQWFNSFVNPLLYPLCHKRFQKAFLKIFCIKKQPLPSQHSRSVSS
T6 sequence (P34969 whole entry, species assumed): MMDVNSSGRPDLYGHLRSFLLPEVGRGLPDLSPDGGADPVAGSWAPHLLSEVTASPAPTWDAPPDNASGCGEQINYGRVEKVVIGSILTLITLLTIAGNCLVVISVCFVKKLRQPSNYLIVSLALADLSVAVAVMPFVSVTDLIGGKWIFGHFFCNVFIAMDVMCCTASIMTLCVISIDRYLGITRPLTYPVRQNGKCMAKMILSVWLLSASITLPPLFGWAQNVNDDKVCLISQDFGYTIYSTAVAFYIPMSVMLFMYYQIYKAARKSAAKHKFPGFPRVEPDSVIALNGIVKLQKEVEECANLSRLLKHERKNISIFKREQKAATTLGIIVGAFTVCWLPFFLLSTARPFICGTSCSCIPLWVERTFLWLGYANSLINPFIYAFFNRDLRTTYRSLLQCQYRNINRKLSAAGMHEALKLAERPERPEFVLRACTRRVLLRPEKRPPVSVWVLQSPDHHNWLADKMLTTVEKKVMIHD

Row | SMILES | Block of CRF potentiation of NMDAR EPSCs [1] | Activity at 5-HT1A (binding assay) (5-HT1A) | Activity at 5-HT1B (binding assay) (5-HT1B) | Activity at 5-HT2A (binding assay) (5-HT2A) | Activity at 5-HT2B (binding assay) (5-HT2B) | Activity at 5-HT3 (binding assay) (5-HT3) | Activity at 5-HT7 (binding assay) (5-HT7) | Activity at D4 (binding assay) (D4) | Activity at NET (binding assay) (NET) | Activity at KOR (binding assay) (KOR) | Activity at GABAA (binding assay) (GABAA) | Activity at H4 (binding assay) (H4) | Activity at Alpha1A (binding assay) (Alpha1A) | Activity at Alpha1B (binding assay) (Alpha1B) | Activity at Alpha2A (binding assay) (Alpha2A) | Activity at Alpha2B (binding assay) (Alpha2B) | Activity at Beta1 (binding assay) (Beta1) | Activity at M3 (binding assay) (M3) | Activity at M5 (binding assay) (M5) | Activity at Beta3 (binding assay) (Beta3) | other results
1 | Brc1ccccc1-c1nnc(CSc2nnnn2-c2ccccc2)o1 [MLS-0046818] | sufficient to block the CRF effect | 26% | 5% | 5% | 67% | −2% | −31% | −42% | 8% | 85% | 15% | 8% | 10% | 19% | 4% | 2% | 7% | 13% | −6% | 27% | Activity at BZP Rat Brain Site (binding assay) (BZP Rat Brain Site): 35%; Activity at Alpha1D (binding assay) (Alpha1D): −10%; Activity at Sigma 2 (binding assay) (Sigma 2): −7%; Activity at Sigma 1 (binding assay) (Sigma 1): 8%; Activity at M1 (binding assay) (M1): −15%
2 | CC(C)Cn1c(SCC(=O)N2CCc3ccccc3C2)nc2cc(Cl)ccc2c1=O [MLS-0219419] | sufficient to block the CRF effect | −9% | 18% | −1% | 2% | 2% | 6% | −60% | 12% | −10% | 9% | −15% | −15% | −1% | 8% | 0% | 1% | 19% | −2% | 29% | Activity at BZP Rat Brain Site (binding assay) (BZP Rat Brain Site): 25%; Activity at Alpha1D (binding assay) (Alpha1D): −19%; Activity at Sigma 2 (binding assay) (Sigma 2): 9%; Activity at Sigma 1 (binding assay) (Sigma 1): 7%; Activity at M1 (binding assay) (M1): −15%
